Some test systems named below: NCI-H23; K562; UACC-257; IGROV-1; TK-10; SK-MEL-2; MDA-MB-231; OVCAR-4; OVCAR-5; OVCAR-3; HOP-62; NCI-H226; OVCAR-8; PC-3; SNB-19; HCT-15; Hs-578T; HT-29; SF-539.
Experiment in all cases: NCI-60 cell line screen, 48 h

The values that follow come from ChEMBL document CHEMBL1201862, “PubChem BioAssay data set” (2004).

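Cultured in 96-well plates, cells were exposed to test compound for 48 hours across five concentrations. GI50 is the concentration that inhibits growth by half.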 The source made the active and inactive calls. Rule as the data show it: active = GI50 up to about 1.1 µM and inactive = higher.

Consider `Nc1nc(SCC(=O)c2ccc(Br)cc2)c2nc[nH]c2n1`, for which the GI50 is 45.2 µM (inactive) in the experiment with NCI-H23; 18.1 µM (inactive) with K562; 30.5 µM (inactive) in the experiment on UACC-257; 13.6 µM (inactive) with IGROV-1; 20.8 µM (inactive) with TK-10; 32.1 µM (inactive) in the experiment with SK-MEL-2. Moreover, the GI50 in the experiment with MDA-MB-231 is 52.1 µM (inactive); with OVCAR-4 it was 53.3 µM (inactive); in the experiment on OVCAR-5, 47.1 µM (inactive); with OVCAR-3, 32.3 µM (inactive); with HOP-62 it was 44.9 µM (inactive); with NCI-H226 it was 27.1 µM (inactive). Also, the GI50 in the experiment with OVCAR-8 is 28.8 µM (inactive); with PC-3, 34.2 µM (inactive); with SNB-19 it was > 100 µM (inactive); in the experiment with HCT-15, 30.1 µM; in the experiment on Hs-578T it was 21.6 µM (inactive); in the experiment with HT-29, 44.6 µM (inactive).
As to `O=c1[nH]c2ccc(CC(=S)N3CCOCC3)cc2s1`, the GI50 in the experiment with NCI-H23, with K562, in the experiment with UACC-257, with IGROV-1, in the experiment with TK-10 and in the experiment on SK-MEL-2 was > 100 µM (inactive) in each case. Also, the GI50 with MDA-MB-231, in the experiment on OVCAR-5, in the experiment on OVCAR-3, in the experiment on HOP-62, in the experiment with NCI-H226 and in the experiment with OVCAR-8 was > 100 µM (inactive) each time. Also, the GI50 is > 100 µM (inactive) in the experiment with PC-3; > 100 µM (inactive) in the experiment with SNB-19; > 100 µM (inactive) with SF-539; above 100 µM in the experiment on HCT-15; > 100 µM (inactive) in the experiment with Hs-578T; > 100 µM (inactive) in the experiment with HT-29.
Take `CCOC(=O)c1cn2c(n1)sc1cccc(C)c12`: the GI50 with NCI-H23 was > 100 µM (inactive); with UACC-257, > 100 µM (inactive); in the experiment on IGROV-1, 47.3 µM (inactive); in the experiment with TK-10, > 100 µM (inactive); with MDA-MB-231, > 100 µM (inactive); in the experiment with OVCAR-5, > 100 µM (inactive). Also, the GI50 in the experiment with OVCAR-3, in the experiment on HOP-62, in the experiment on NCI-H226, with OVCAR-8, with PC-3 and in the experiment with SNB-19 was > 100 µM (inactive) in each case. For the same molecule, the GI50 in the experiment with SF-539 was > 100 µM (inactive); in the experiment with HCT-15 it was above 100 µM; with Hs-578T, 21.7 µM (inactive).
Regarding `O=C(/C=C/c1csc(-c2ccccc2)n1)NCc1ccc(C(=O)NCCc2ccccc2)cc1`, the GI50 was 29.7 µM (inactive) in the experiment with NCI-H23; > 100 µM (inactive) with K562; 27.2 µM (inactive) in the experiment with UACC-257; 36.6 µM (inactive) in the experiment with IGROV-1; 11.7 µM (inactive) in the experiment with TK-10; 32 µM (inactive) in the experiment with SK-MEL-2. Moreover, the GI50 was 5.38 µM (inactive) with MDA-MB-231; 24.5 µM (inactive) in the experiment on OVCAR-4; 73.3 µM (inactive) in the experiment with OVCAR-5; 63.8 µM (inactive) with OVCAR-3; 2.64 µM (inactive) with HOP-62; 25.5 µM (inactive) in the experiment on NCI-H226. The GI50 is 4.23 µM (inactive) with OVCAR-8; 49.4 µM (inactive) in the experiment on PC-3; 11.4 µM (inactive) in the experiment with SNB-19; 93.5 µM in the experiment on HCT-15; 7.05 µM (inactive) in the experiment on Hs-578T; 5.09 µM (inactive) in the experiment with HT-29.
Turning to `COc1ccc([N+](=O)[O-])cc1[I+]c1cc([N+](=O)[O-])ccc1OC`, the GI50 is 55.1 µM (inactive) with NCI-H23; 35 µM (inactive) with K562; 33.6 µM (inactive) with UACC-257; 23 µM (inactive) with IGROV-1; 58.6 µM (inactive) with TK-10; 27.5 µM (inactive) with SK-MEL-2. Further, the GI50 was > 100 µM (inactive) in the experiment on MDA-MB-231; > 100 µM (inactive) with OVCAR-5; 54.1 µM (inactive) with OVCAR-3; > 100 µM (inactive) in the experiment on HOP-62; 53.2 µM (inactive) in the experiment with NCI-H226; 73.6 µM (inactive) with OVCAR-8. Besides, the GI50 with PC-3 was 52 µM (inactive); in the experiment with SNB-19 it was 34.9 µM (inactive); with SF-539 it was 44 µM (inactive); with HCT-15, 41.1 µM; with Hs-578T, 91.6 µM (inactive); in the experiment with HT-29, 38 µM (inactive).
For the molecule `COc1ccc2c(c1OC(C)=O)C1=CC(=O)CCC13CCNC3C2` (stereo not drawn), the GI50 in the experiment on NCI-H23, in the experiment on K562, in the experiment with UACC-257, with IGROV-1, in the experiment on TK-10 and with SK-MEL-2 was > 100 µM (inactive) throughout. For the same molecule, the GI50 with MDA-MB-231, in the experiment with OVCAR-4, with OVCAR-5, in the experiment with OVCAR-3, in the experiment on HOP-62 and in the experiment on NCI-H226 was > 100 µM (inactive) each time. Also, the GI50 with OVCAR-8 was > 100 µM (inactive); in the experiment with PC-3 it was > 100 µM (inactive); in the experiment with SNB-19, > 100 µM (inactive); with HCT-15 it was above 100 µM; in the experiment on Hs-578T, > 100 µM (inactive); in the experiment with HT-29, > 100 µM (inactive).
Take `COc1ccc(/C=C2\NC(=S)N(CN3CCOCC3)C2=O)cc1`: the GI50 in the experiment with NCI-H23, in the experiment with K562, with UACC-257, with IGROV-1, with TK-10 and in the experiment on SK-MEL-2 was > 100 µM (inactive) each time. The GI50 in the experiment on MDA-MB-231, with OVCAR-4, in the experiment with OVCAR-5, in the experiment on OVCAR-3, with HOP-62 and in the experiment on NCI-H226 was > 100 µM (inactive) throughout. Moreover, the GI50 with OVCAR-8 was > 100 µM (inactive); in the experiment on PC-3, > 100 µM (inactive); with SNB-19, > 100 µM (inactive); in the experiment with HCT-15, above 100 µM; with Hs-578T, > 100 µM (inactive); in the experiment with HT-29 it was > 100 µM (inactive).
With `O=C1CSC(c2c[nH]c3ccccc23)N1c1cccc(Cl)c1` (stereo not drawn), the GI50 with NCI-H23 was 54 µM (inactive); with K562 it was 41 µM (inactive); in the experiment on UACC-257, > 100 µM (inactive); in the experiment on IGROV-1 it was 27.9 µM (inactive); in the experiment on TK-10 it was 89.3 µM (inactive); in the experiment with SK-MEL-2, 30.1 µM (inactive). Besides, the GI50 was 24 µM (inactive) in the experiment on MDA-MB-231; 38 µM (inactive) in the experiment with OVCAR-4; 73.8 µM (inactive) with OVCAR-5; 27.9 µM (inactive) with OVCAR-3; 54.7 µM (inactive) with HOP-62; 66.5 µM (inactive) in the experiment with NCI-H226. The GI50 in the experiment on OVCAR-8 is > 100 µM (inactive); with SNB-19 it was 68.2 µM (inactive); in the experiment on SF-539 it was 61.1 µM (inactive); with HCT-15, 40.4 µM; with Hs-578T, 38.4 µM (inactive); in the experiment with HT-29 it was 37.8 µM (inactive).
On to `O=C1CC(CC(O)C(O)C(O)CO)CC(=O)N1` (stereo not drawn), for which the GI50 with NCI-H23, in the experiment on K562, in the experiment on UACC-257, in the experiment with IGROV-1, with MDA-MB-231 and in the experiment with OVCAR-4 was > 100 µM (inactive) in each case. The GI50 in the experiment with OVCAR-5, in the experiment on OVCAR-3, with HOP-62, in the experiment on NCI-H226, in the experiment on OVCAR-8 and in the experiment on PC-3 was > 100 µM (inactive) throughout. For the same molecule, the GI50 in the experiment on SF-539 was > 100 µM (inactive); in the experiment with HCT-15 it was above 100 µM; in the experiment on Hs-578T it was > 100 µM (inactive); with HT-29 it was > 100 µM (inactive).
On to `COc1cc(Nc2nnc3n2S(=O)(=O)c2cc(C)c(Cl)cc2S3)cc(OC)c1`, for which the GI50 with NCI-H23 was 6.25 µM (inactive); in the experiment on K562 it was 13.2 µM (inactive); in the experiment with UACC-257, 16.6 µM (inactive); in the experiment on IGROV-1, 1.87 µM (inactive); in the experiment with TK-10, 31.4 µM (inactive); with MDA-MB-231, 19.9 µM (inactive). In addition, the GI50 was 4.3 µM (inactive) in the experiment with OVCAR-4; 62.2 µM (inactive) in the experiment with OVCAR-5; 5.19 µM (inactive) in the experiment with OVCAR-3; 11.9 µM (inactive) in the experiment with HOP-62; 16.4 µM (inactive) with NCI-H226; 17.5 µM (inactive) with OVCAR-8. In addition, the GI50 in the experiment on PC-3 is 8.83 µM (inactive); with SNB-19, 13.3 µM (inactive); in the experiment on SF-539 it was 2.12 µM (inactive); in the experiment on HCT-15, 17.7 µM; in the experiment with Hs-578T, 14.2 µM (inactive); in the experiment with HT-29, 12.4 µM (inactive).
For the molecule `N#CC1=C(N)Nc2nc3ccccc3n2C1c1ccccc1` (stereo not drawn), the GI50 with NCI-H23 is > 100 µM (inactive); in the experiment on K562, 59.7 µM (inactive); in the experiment on UACC-257 it was > 100 µM (inactive); in the experiment with IGROV-1 it was 51.5 µM (inactive); in the experiment on SK-MEL-2 it was 77.8 µM (inactive); in the experiment with MDA-MB-231, 45.9 µM (inactive). Also, the GI50 is > 100 µM (inactive) with OVCAR-5; 30.5 µM (inactive) with OVCAR-3; 88.1 µM (inactive) with HOP-62; 55.1 µM (inactive) in the experiment on OVCAR-8; 46.1 µM (inactive) in the experiment on PC-3; > 100 µM (inactive) in the experiment on SNB-19. For the same molecule, the GI50 with SF-539 is > 100 µM (inactive); in the experiment with HCT-15 it was 44.7 µM; with Hs-578T, 24.7 µM (inactive); with HT-29 it was 33.7 µM (inactive).
`COC(=O)C1C/C(=C/N(C)C)C(=S)N1` (stereo not drawn): the GI50 with NCI-H23, in the experiment on K562, in the experiment on UACC-257, in the experiment with IGROV-1, with TK-10 and in the experiment with SK-MEL-2 was > 100 µM (inactive) in each case. Moreover, the GI50 in the experiment with MDA-MB-231, in the experiment with OVCAR-4, with OVCAR-5, in the experiment on OVCAR-3, in the experiment on HOP-62 and with OVCAR-8 was > 100 µM (inactive) in each case. In addition, the GI50 is > 100 µM (inactive) with PC-3; > 100 µM (inactive) in the experiment with SNB-19; above 100 µM in the experiment with HCT-15; > 100 µM (inactive) in the experiment on Hs-578T; > 100 µM (inactive) in the experiment on HT-29.
